TGI and GI50 data for 14 compounds are collected here from PubChem BioAssay (NCI).

Test systems include SR leukemia; OVCAR-4 ovarian; A549 NSCLC; SN12C renal; SF-539 CNS; SK-MEL-2 melanoma; COLO 205 colon; MCF7 breast; MDA-MB-435; DU-145 prostate.
Holding throughout (assay): inhibition of tumour cell growth, NCI panel, 48 h

Values joined by “and” are separate entries in the source; they are usually repeats but may differ in a detail not shown here. Equal values may be shown once.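 Exposure lasted 48 hours, with cells grown in 96-well plates and compounds tested at five concentrations. GI50 marks 50% less growth. At the TGI there is no net growth.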

Consider `CN(C)C1=NC2=S(SC(Nc3ccccc3)=N2)S1` (configuration not stated), for which the TGI in the assay on SR leukemia is above 100 µM; in the assay on OVCAR-4 ovarian, above 100 µM; in the assay on A549 NSCLC, 47.2 µM; in the assay with SN12C renal it was above 100 µM; in the assay with SF-539 CNS, 60.6 µM; in the assay on SK-MEL-2 melanoma, above 100 µM.

As for `CCOC(=O)NC(=O)c1cn(CCCOC(=O)NCCCCCCNC(=O)OCCCn2cc(C(=O)NC(=O)OCC)c(=O)[nH]c2=O)c(=O)[nH]c1=O`, the TGI in the assay on OVCAR-4 ovarian is 29.6 µM; with A549 NSCLC, above 100 µM; in the assay with COLO 205 colon, 41 µM; with SN12C renal, above 100 µM; with SF-539 CNS, 44.5 µM.

As to `Oc1ccc(-c2cn3cc(Cl)sc3n2)cc1`, the GI50 was 4.51 µM in the assay on SR leukemia; 30.8 µM with A549 NSCLC; 6.77 µM in the assay with MCF7 breast; 19.8 µM in the assay with COLO 205 colon; 0.248 µM in the assay on SN12C renal; above 100 µM in the assay with SF-539 CNS. For the same compound, the results for the GI50 in the assay on SK-MEL-2 melanoma and in the assay with MDA-MB-435 were above 100 µM and 32.3 µM, respectively. Further, the TGI in the assay on SR leukemia is 18.8 µM; with A549 NSCLC, above 100 µM; with MCF7 breast, 26.9 µM; with COLO 205 colon, 43.4 µM; in the assay on SN12C renal, 94.8 µM; in the assay with SF-539 CNS, above 100 µM. The TGI in the assay with SK-MEL-2 melanoma and in the assay with MDA-MB-435 was above 100 µM in each case.

For the compound `CCOC(=O)C(=O)Nc1c(C)cccc1C(C)C`, the TGI with SR leukemia, with OVCAR-4 ovarian, with A549 NSCLC, in the assay with COLO 205 colon, in the assay on SN12C renal and in the assay with SF-539 CNS was above 100 µM throughout. In the assay with SK-MEL-2 melanoma, this compound gave a TGI above 100 µM.

On to `COc1ccc(C(=O)CC(=O)C(=O)Nc2ccc(C)c(C)c2)cc1`, for which the TGI in the assay on SR leukemia was above 100 µM; with OVCAR-4 ovarian it was above 100 µM; with A549 NSCLC, above 100 µM; with COLO 205 colon it was above 82.4 µM; in the assay on SN12C renal, above 100 µM; in the assay with SF-539 CNS, above 100 µM. In the assay on SK-MEL-2 melanoma, this compound displayed a TGI above 100 µM.

`COC1=C2C[C@@H](C)C[C@@H](OC)[C@@H](O)[C@H](C)/C=C(\C)[C@@H](OC(N)=O)[C@H](OC)/C=C\C=C(/C)C(=O)NC(=CC1=O)C2=O`: the GI50 in the assay on COLO 205 colon was 0.0578 µM and 0.015 µM. The TGI with SF-539 CNS was 9.47 µM and 12.2 µM and 2.68 µM; with DU-145 prostate, 4.66 µM and 10.3 µM and 14.2 µM; in the assay with MDA-MB-435, 5.5 µM and 8.63 µM and 5.65 µM.

Take `COC(=O)CS(=O)c1ccccc1` (configuration not stated): the TGI with OVCAR-4 ovarian was above 100 µM; in the assay with A549 NSCLC it was above 100 µM; in the assay with COLO 205 colon, above 100 µM; with SN12C renal, 40.4 µM; with SF-539 CNS, 44.1 µM; with SK-MEL-2 melanoma, above 100 µM.

Regarding `CCC[CH2][Sn]1([CH2]CCC)[O]CC(CN2CCOCC2)[O]1` (configuration not stated), the GI50 in the assay with SR leukemia was 1.56 µM; with OVCAR-4 ovarian, 11.2 µM; in the assay on A549 NSCLC, 18.3 µM; in the assay with COLO 205 colon, 3.58 µM; with SN12C renal, 5.02 µM; in the assay on SF-539 CNS it was 2.96 µM. Besides, in the assay with SK-MEL-2 melanoma, the GI50 is 1.53 µM. The TGI with SR leukemia was 6.13 µM; in the assay with OVCAR-4 ovarian, 23.4 µM; in the assay on A549 NSCLC, 32.2 µM; with COLO 205 colon it was 9.59 µM; with SN12C renal it was 16.7 µM; with SF-539 CNS, 8.59 µM. The compound also had a TGI in the assay on SK-MEL-2 melanoma of 3.66 µM.

As to `O=C(O)c1cccc2cccc(C(=O)O)c12.[Hg]`, the GI50 in the assay on SR leukemia is 4.05 µM; with OVCAR-4 ovarian, 18 µM; with A549 NSCLC, 20.4 µM; with COLO 205 colon it was 3.1 µM; in the assay with SN12C renal, 14.6 µM; in the assay with SK-MEL-2 melanoma, 17.4 µM. The TGI stood at 23.5 µM in the assay with SR leukemia; 32.6 µM in the assay on OVCAR-4 ovarian; 42.3 µM in the assay on A549 NSCLC; 14.5 µM in the assay on COLO 205 colon; 27.7 µM in the assay with SN12C renal; 31.6 µM with SK-MEL-2 melanoma.

In the case of `COc1cc(Nc2nc3cc(C(F)(F)F)ccc3nc2-c2ccccc2)cc(OC)c1OC`, the TGI with SR leukemia was above 100 µM; with OVCAR-4 ovarian, 51.3 µM; in the assay with A549 NSCLC it was above 100 µM; in the assay with COLO 205 colon it was above 100 µM; with SN12C renal, above 100 µM; with SF-539 CNS, above 100 µM. In the assay with SK-MEL-2 melanoma, the TGI is above 100 µM.

For `NC(=O)CCC(NC(=O)Cc1ccccc1)C(=O)O` (configuration not stated) (tested in a mixture with another compound), the TGI in the assay on SR leukemia, in the assay on OVCAR-4 ovarian, in the assay with A549 NSCLC, in the assay with COLO 205 colon, in the assay on SN12C renal and in the assay on SF-539 CNS was above 8130 µM throughout. Further, the TGI in the assay on SK-MEL-2 melanoma was above 8130 µM.

Take `COc1ccc(NC(=O)CC(=O)N2N=C(N(CCC#N)c3cccc(C)c3)CC2c2ccccc2)cc1` (configuration not stated): the TGI in the assay on SR leukemia, with OVCAR-4 ovarian, in the assay on A549 NSCLC, in the assay with COLO 205 colon, with SN12C renal and with SF-539 CNS was above 100 µM throughout. Besides, the TGI in the assay on SK-MEL-2 melanoma is above 100 µM.

Take `COc1cc(/C=C2\C(=O)N(c3ccccc3)c3ccccc32)cc(OC)c1OC`: the GI50 in the assay with SR leukemia is 2.1 µM; with OVCAR-4 ovarian it was 10.4 µM; in the assay with A549 NSCLC, 11.3 µM; in the assay on MCF7 breast, 8.05 µM; with COLO 205 colon, 14.4 µM; in the assay with SN12C renal, 5.4 µM. In addition, the GI50 with SF-539 CNS was 5.38 µM; with SK-MEL-2 melanoma, 11.7 µM; in the assay on MDA-MB-435, 5.85 µM. The TGI was 10.4 µM in the assay on SR leukemia; 23.7 µM in the assay with OVCAR-4 ovarian; 40.9 µM in the assay with A549 NSCLC; above 100 µM in the assay with MCF7 breast; 71.3 µM in the assay with COLO 205 colon; 24.7 µM in the assay on SN12C renal. In addition, the TGI in the assay with SF-539 CNS came out at 91.7 µM; in the assay on SK-MEL-2 melanoma, 30.7 µM; in the assay with MDA-MB-435, 36.6 µM.

On to `COc1ccc(-c2cc(-c3cc(C)ccc3O)[nH]c(=O)n2)cc1`, for which the TGI in the assay with SR leukemia, in the assay on OVCAR-4 ovarian, in the assay on A549 NSCLC, with COLO 205 colon, in the assay on SN12C renal and with SF-539 CNS was above 100 µM throughout.
